Data reported in patent US7256042B2, “Process for making hepatocytes from pluripotent stem cells” (Geron Corporation, priority 2000, dated 2007).
Where two headings read alike, the source gives them in different places. One block for each compound: values may come before it.

How the values were obtained:
[1] = system: hES cell derived embryoid bodies; assay: Comparison of potential hepatocyte differentiation agents; assay type: cell-based, human; conditions: for Effect on hepatocyte differentiation (in words): concentration of 5 mM; for Induction of hepatocyte phenotype: EBs 4 days in suspension, replated on plates coated with collagenase 1, cultured with each compound for 6 days, analogs at 5 mM; on Induction of hepatocyte phenotype: key: +: Causes hepatocyte differentiation and selective elimination of other cell types; −: No inductive effect; ±: Mild inductive effect; may allow growth or survival of other cell types
Procedure: (§1) The effect of sodium butyrate was compared with other potential hepatocyte differentiation agents in a similar protocol. Embryoid bodies were cultured in suspension for 4 days, and then replated on plates coated with collagenase 1. The cells were then cultured in the presence of each compound for 6 days.

hES cells [2] = assay: Phenotype of hepatocyte lineage cells made using sodium n-butyrate or Trichostatin A; assay type: cell-based, human; conditions: 5 mM sodium n-butyrate; 100 nM Trichostatin A
Procedure: as §1
At 75-100 nM, Trichostatin A appeared to both induce hepatocyte differentiation and select against survival of other cell types.

[3] = system: undifferentiated hES cells; assay: Direct differentiation of hES cells without embryoid bodies, immunocytochemistry (Example 7); assay type: cell-based, human; conditions: 1% DMSO 4 days, then 2.5% Na-butyrate 6 days
Excerpt: The undifferentiated hES cells were maintained in feeder-free conditions (on Matrigel® in MEF-CM). The strategy was to initiate a global differentiation process by adding the hepatocyte maturation factors DMSO or retanoic acid (RA) to a subconfluent culture. The cells are then induced to form hepatocyte-like cells by the addition of Na-butyrate.
The hES cells were maintained in undifferentiated culture conditions for 2-3 days after splitting. At this time, the cells were 50-60% confluent and the medium was exchanged with unconditioned SR medium containing 1% DMSO. The cultures were fed daily with SR medium for 4 days and then exchanged into unconditioned SR medium containing 2.5% Na-butyrate. The cultures were fed daily with this medium for 6 days; at which time one half of the cultures were evaluated by immunocytochemistry. The other half of the cultures were harvested with trypsin and replated onto collagen, to further promote enrichment for hepatocyte lineage cells. Immunocytochemistry was then performed on the following day.

H9 hES cells = assay: Differentiation of hES cells in feeder-free culture, morphology (Example 5); assay type: cell-based, human; conditions: feeder-free H9 hES cells on laminin, SR medium + 5 mM sodium butyrate, about six days after treatment
Procedure: Undifferentiated hES colonies were passaged continuously in feeder-free conditions as follows. Cultures were incubated in 1 mg/mL collagenase for about 5 minutes at 37° C. The cells were then harvested by scraping the cells off the surface and dissociating them into small clumps. Cells were split at a 1:3 or 1:6 ratio, ˜55,000 cells/mL (17,000 cells/cm^2). The day after replating, colonies of undifferentiated cells could again be identified. Single cells in between the colonies were differentiated. Over the next few days, the undifferentiated cells were seen to proliferate and the colonies became large and compact. The differentiated cells in between the colonies also became more compact. The cells became confluent after 4-7 days of being fed daily with conditioned media. When the cells reached confluence, they were split once more.
For this example, the H9 hES cells (p30+5) were maintained in feeder-free conditions for 30 days (5 passages) before differentiation. The undifferentiated cells were maintained on laminin and fed with MEF-conditioned medium, as described elsewhere in this disclosure. To induce differentiation, the conditioned medium was replaced with SR medium (without supplemental bFGF) containing 5 mM sodium butyrate.

hES cells [4] = assay: Direct differentiation Protocol 7, cell morphology (FIG. 5); assay type: cell-based, human; conditions: 4 days in SR medium containing butyrate
Procedure: hES cells undergo the Direct Differentiation protocol detailed earlier, making the adjustments to culture conditions shown in Table 12. Hepatocyte Culture Medium is purchased from Clonetics; Strom's Medium is prepared as described in Runge et al., Biochem. Biophys. Res. Commun. 265:376, 1999. The cell populations obtained are assessed by immunocytochemistry and enzyme activity.
Left column: 10×magnification; Right column: 40×magnification. By 4 days in the presence of butyrate, more than 80% of cells in the culture are large in diameter, containing large nuclei and granular cytoplasm (Row A). After 5 days in SR medium, the cells were switched to HCM. Two days later, many cells are multinucleated, and have a large polygonal shape (Row B). By 4 days in HCM, multinucleated polygonal cells are common, and have a darker cytosol (Row C), by which criteria they resemble freshly isolated human adult hepatocytes (Row D) or fetal hepatocytes (Row E).

[5] = system: Human ES cell derived embryoid bodies; conditions: 5 mM Na butyrate, with or without 1% DMSO, day 7
[6] = system: hES cell derived embryoid body cells; assay: Immunocytochemistry of embryoid body cells cultured 4 days after plating (Example 1)
Procedure: Confluent monolayer cultures of hES cells on or off feeder cells were harvested by incubating in collagenase for 15-20 min, following which the cells are scraped from the plate. The cells were then dissociated into clusters and plated in non-adherent cell culture plates (Costar) in a medium composed of 80% KO DMEM (Gibco) and 20% non-heat-inactivated FBS (Hyclone), supplemented with 1% non-essential amino acids, 1 mM glutamine, 0.1 mM β-mercaptoethanol. The cells were seeded at a 1:2 ratio in 2 mL medium per well (6 well plate). The EBs were fed every other day by the addition of 2 mL of medium per well. When the volume of medium exceeded 4 mL/well, the EBs were collected and resuspended in fresh medium. After 4-8 days in suspension, the EBs were plated onto a substrate and allowed to differentiate further.
(§2) The fixed cells were rinsed with PBS twice and blocked for 1 hour in 10% goat serum in PBS. They were then incubated in primary antibody diluted in 10% goat serum and PBS for 2 h. Antibody to albumin, alpha fetoprotein (AFP) (Sigma) and α1-antitrypsin (OEB Biosciences Inc.) were diluted at 1:500, cytokeratin, 8, 18 and 19, desmin, (Neomarkers), vimentin (Dako) and SMA (Sigma) were diluted at 1:200. Cells were then washed 3 times with PBS and incubated in secondary antibody, which was FITC-conjugated anti-mouse IgG diluted 1:100 and Hoechst HH33258 (Sigma) at 1:1000 in 5% goat serum in PBS, and incubated for 1 h. The stained cells were then washed 3 times in PBS, and mounted in Vectashield™ (Vector Labs). Images were taken at 10× and 40× using a Nikon Labophot™ equipped with epifluorescence and a spot CCD camera.
Embryoid bodies (EB) were prepared as described in the preceding section. After 5 days in suspension culture, they were harvested and plated on Growth Factor Reduced Matrigel® coated plates and in chamber slides (Nunc). One of the following three conditions was used in parallel: • medium containing 20% fetal bovine serum (FBS); • medium containing 20% FBS and 5 mM sodium butyrate (Sigma); • medium containing 20% FBS, 0.5% DMSO (ATCC), 4 μM dexamethazone (Sigma), 150 ng/ml insulin, 10 ng/ml EGF, 600 nM glucagon (Sigma). In each case, the medium was exchanged every day, and cells were fixed for immunocytochemistry on day 4 after plating.

[7] = system: hES cell derived embryoid bodies; assay: Phenotype of embryoid body cells after 6 days with n-butyrate: immunocytochemistry, glycogen (PAS), BrdU (Example 2); assay type: cell-based, human; conditions: EBs on Matrigel, 20% FBS + 5 mM sodium n-butyrate
Procedure: Cells were grown on chamber slides in the indicated growth medium, and labeled with 10 μM BrdU for 24 h. Cells were then fixed with 3:1 methanol: acetic acid for 30 minutes, and air-dried overnight in the dark. The fixed cells were rinsed once in PBS, and denatured in 0.07 N NaOH for 2 min followed by quick rinses in PBS pH 8.5 and pH7.4 several times. They were then blocked using 1.5% goat serum (Vector Labs) for 15 min, and incubated with anti BrdU antibody (Sigma) diluted 1:500 in 1.5% goat serum and 0.05% Tween™ 20 for 2 h. The samples were washed thrice in PBS, and then incubated with secondary antibody, which was biotinylated goat anti-mouse immunoglobulin (Vector Labs), at 10 μg/mL diluted in 1.5% horse serum for 30 min. […] Hoechst HO33258 stain (bisbenzimide, Sigma Cat. No. B2883) was mixed into the streptavidin solution at 2.5uM final concentration to stain all the nuclei.
The medium was changed daily or every other day. There was a lot of cell death on day 1 followed by less cell death on the subsequent days.
On the sixth day after plating in the differentiation agent, the cells were analyzed for expression of markers by RT-PCR and immunocytochemistry, following the procedures outlined earlier. Glycogen content in these cells was determined using periodic acid Schiff stain. The number of cells in S phase of cell cycle was determined by incubating the cells with 10 μM BrdU on day 5 after plating, and subsequently staining with anti-BrdU antibody 24 hours later.

[8] = system: EBs generated from hES cells; conditions: 20% FBS + 5 mM Na-butyrate, with or without 1% DMSO, 6 days
Procedure: as §2
EBs were generated from hES cells in feeder-free conditions. After 4 days in suspension, the EBs were plated in 20% FBS medium supplemented with 5 mM Na-butyrate or 5 mM Na-butyrate and 1% DMSO. The EBs were plated on the following matrices: • 1. collagen I (0.03 mg/mL coated overnight at 37° C.) • 2. growth factor reduced Matrigel® (1:10, coated for 1 h at room temp) • 3. gelatin (1% coated for 2 h at 37° C.)
After 6 days in Na-butyrate the cells were evaluated morphologically and using immunocytochemistry for hepatocyte markers.

[9] = Trypsinization and replating onto collagen, stained the following day
[10] = EBs on Growth Factor Reduced Matrigel, day 4, 20% FBS + 5 mM sodium butyrate, or 20% FBS + 0.5% DMSO + dexamethazone, insulin, EGF, glucagon

Compound: CCCC(=O)O [n-Butyric Acid]
Effect on hepatocyte differentiation (in words) ([1]; 6 days): equally effective

Compound: CCCCCC(=O)O [Caproic acid]
Induction of hepatocyte phenotype [1]: −

Compound: [Cl-].[Na+] [NaCl]
Effect on hepatocyte differentiation (in words) ([1]; 6 days): no effect

Compound: CC(/C=C/C(=O)NO)=C\[C@@H](C)C(=O)c1ccc(N(C)C)cc1 [Trichostatin A]
CK18, positive cells (hES cells [2]): >70%
CK19, positive cells (hES cells [2]): >90%
Glycogen staining, positive cells (hES cells [2]): >50%
albumin, positive cells (hES cells [2]): 41%
α1-antitrypsin, positive cells (hES cells [2]): 81%
Concentration range found ineffective ([1]; EB-derived cells, 6 days): 10 to 50 nM
Concentration range found to be toxic to cells ([1]; EB-derived cells, 6 days): 2500 to 100000 nM
Concentration range that induces hepatocyte differentiation and selects against survival of other cell types ([1]; EB-derived cells, 6 days): 75 to 100 nM
Induction of hepatocyte phenotype [1]: +

Compound: CCCC(=O)[O-].[Na+] [Sodium n-butyrate]
Cytokeratin 8, % positive ([3]; No trypsinization): >80%
Cytokeratin 18, % positive ([3]; No trypsinization): >80%
Cytokeratin 19, % positive ([3]; No trypsinization): >80%
albumin, % positive ([3]; No trypsinization): 11%
glycogen, % positive ([3]; No trypsinization): 0%
α1-antitrypsin, % positive ([3]; No trypsinization): >80%
α-fetoprotein, % positive ([3]; No trypsinization): 0%
Cytokeratin 8, % positive [3, 9]: 45%
Cytokeratin 18, % positive [3, 9]: 30%
Cytokeratin 19, % positive [3, 9]: 30%
albumin, % positive [3, 9]: 63%
glycogen, % positive [3, 9]: >50%
α1-antitrypsin, % positive [3, 9]: >80%
α-fetoprotein, % positive [3, 9]: 0%
Cell morphology (in words) (H9 hES cells): contained many patches of hepatocyte-like cells
Cells large in diameter, containing large nuclei and granular cytoplasm (hES cells [4]; listed as butyrate): more than 80%
Cells large in diameter, containing large nuclei and granular cytoplasm (hES cells [4]; listed as sodium n-butyrate): More than 80%
Albumin, percentage of cells staining ([5]; Gelatin coated plates): 56%
CK18, percentage of cells staining ([5]; Gelatin coated plates): 100%
CK19, percentage of cells staining ([5]; Gelatin coated plates): 100%
Glycogen, percentage of cells staining ([5]; Gelatin coated plates): >60%
α1-antitrypsin, percentage of cells staining ([5]; Gelatin coated plates): >90%
α-fetoprotein, percentage of cells staining ([5]; Gelatin coated plates): 0
Albumin, percentage of cells staining ([5]; Matrigel coated plates): 50%
CK18, percentage of cells staining ([5]; Matrigel coated plates): 100%
CK19, percentage of cells staining ([5]; Matrigel coated plates): 100%
Glycogen, percentage of cells staining ([5]; Matrigel coated plates): >60%
α1-antitrypsin, percentage of cells staining ([5]; Matrigel coated plates): >90%
α-fetoprotein, percentage of cells staining ([5]; Matrigel coated plates): 0
CK18, positive cells (hES cells [2]): 100%
CK19, positive cells (hES cells [2]): 100%
Glycogen staining, positive cells (hES cells [2]): >60%
albumin, positive cells (hES cells [2]): 62%
α1-antitrypsin, positive cells (hES cells [2]): 90%
α-fetoprotein, positive cells (hES cells [2]): 0%
Cell survival and morphology (in words) ([6]; 20% FBS + 5 mM sodium butyrate, 1 day after plating): fairly homogenous population of cells survived
AFP, cells showing positive staining [6, 10]: did not express AFP
Albumin, percentage of cells showing positive staining [6, 10]: about 30%
CK8, percentage of cells showing positive staining [6, 10]: 100% + ve
CK18, percentage of cells showing positive staining [6, 10]: 100% + ve
CK19, percentage of cells showing positive staining [6, 10]: 100% + ve
SMA, percentage of cells showing positive staining [6, 10]: <1% + ve
Vimentin, percentage of cells showing positive staining [6, 10]: 100% + ve
α1-antitrypsin, percentage of cells showing positive staining [6, 10]: >60% + ve
Albumin, percentage of cells showing positive staining ([6]; EBs on Growth Factor Reduced Matrigel, day 4, 20% FBS + 5 mM sodium butyrate, or 20% FBS + 0.5% DMSO + dexamethazone, insulin, EGF, glucagon, listed as Na butyrate): 30% + ve*
Cultured embryoid body derived cells released from the substrate into the medium ([6]; first day of culture with the differentiation agent): about 90%
Albumin, % positive cells ([7]; day 6): 55%
CK8, % positive cells ([7]; day 6): 100%
CK18, % positive cells ([7]; day 6): 100%
CK19, % positive cells ([7]; day 6): 100%
Desmin, % positive cells ([7]; day 6): 0%
Glycogen staining (Periodic Acid Schiff), % positive cells ([7]; day 6): 60%
α1-antitrypsin, % positive cells ([7]; day 6): 90%
α-fetoprotein, % positive cells ([7]; day 6): 0%
BrdU staining, % positive cells ([7]; 10 μM BrdU on day 5, stained 24 hours later): 16%
Cytokeratin 18, percentage of cells positive ([8]; Collagen I): 100%
Cytokeratin 19, percentage of cells positive ([8]; Collagen I): 100%
Glycogen, percentage of cells positive ([8]; Collagen I): >60%
albumin, percentage of cells positive ([8]; Collagen I): 79%
α1-antitrypsin, percentage of cells positive ([8]; Collagen I): >90%
α-fetoprotein, percentage of cells positive ([8]; Collagen I): 0
Cytokeratin 18, percentage of cells positive ([8]; Gelatin): 100%
Cytokeratin 19, percentage of cells positive ([8]; Gelatin): 100%
Glycogen, percentage of cells positive ([8]; Gelatin): >60%
albumin, percentage of cells positive ([8]; Gelatin): 50%
α1-antitrypsin, percentage of cells positive ([8]; Gelatin): >90%
α-fetoprotein, percentage of cells positive ([8]; Gelatin): 0
Cytokeratin 18, percentage of cells positive ([8]; Matrigel): 100%
Cytokeratin 19, percentage of cells positive ([8]; Matrigel): 100%
Glycogen, percentage of cells positive ([8]; Matrigel): >60%
albumin, percentage of cells positive ([8]; Matrigel): 56%
α1-antitrypsin, percentage of cells positive ([8]; Matrigel): >90%
α-fetoprotein, percentage of cells positive ([8]; Matrigel): 0
Effect on hepatocyte differentiation (in words) ([1]; 6 days): equally effective

Compound: CCC(=O)O [Propionic acid]
Effect on hepatocyte differentiation (in words) ([1]; 6 days): effective in causing hepatocyte differentiation

Induction of hepatocyte phenotype [1]: −
Compound: CCC(O)C(=O)O (stereo not drawn) [α-hydroxybutyric acid]

Induction of hepatocyte phenotype [1]: −
Compound: CC(O)CC(=O)O (stereo not drawn) [β-hydroxybutyric acid]

Induction of hepatocyte phenotype [1]: −
Compound: CCCCC(=O)O [Valeric acid]

Induction of hepatocyte phenotype [1]: ±
Compound: CC(C)C(=O)O [Isobutyric acid]
Effect on hepatocyte differentiation (in words) ([1]; 6 days): effective in causing hepatocyte differentiation
